For data set [1], the target named is A1AR. More on the design: method as in ChEMBL25 [53]. The following applies: S1 Table training set; ref ChEMBL25 [53]; read-out: Ki (nM) A1; cited from earlier work.
The target in data set [2] is A2AAR. More on the design: method as in ChEMBL25 [53]. The following applies: S1 Table training set; ref ChEMBL25 [53]; read-out: Ki (nM) A2A; cited from earlier work.
Data set [3] has as its target T1, A1AR (Homo sapiens, UniProt P30542).
T1 sequence (P30542 1-326): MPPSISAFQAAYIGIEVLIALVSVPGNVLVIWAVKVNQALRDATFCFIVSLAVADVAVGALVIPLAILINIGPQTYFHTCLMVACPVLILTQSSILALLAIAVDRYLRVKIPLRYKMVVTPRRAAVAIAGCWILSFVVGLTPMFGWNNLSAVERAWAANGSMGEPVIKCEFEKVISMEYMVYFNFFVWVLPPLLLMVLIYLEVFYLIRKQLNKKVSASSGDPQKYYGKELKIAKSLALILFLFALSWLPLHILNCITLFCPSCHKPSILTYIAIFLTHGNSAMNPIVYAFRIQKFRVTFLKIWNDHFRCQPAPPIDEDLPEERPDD
Put plainly: cAMP functional assay, CHO-A1 cells. More on the design: host or cells: CHO-A1 cells. The conditions noted are these: antagonism of NECA effect on cAMP, 5.08 × 10^−3 to 100 μM, read-out: cAMP assays (pIC50) A1 (converted). It counts as cell-based.

In data set [4] the target is T2, A2AAR (Homo sapiens, UniProt P29274). Description: Radioligand binding assay ([3H]ZM241385). The conditions noted are these: [3H]ZM241385 0.5 nM, 90 min at 27°C, Cheng-Prusoff; read-out: Binding affinities (pKi) A2A (converted).
The target of data set [5] is T2, A2AAR. Put plainly: cAMP functional assay, HEK293-A2A cells. More on the design: host or cells: HEK293-A2A cells. The conditions noted are these: antagonism of NECA effect on cAMP, 5.08 × 10^−3 to 100 μM, read-out: cAMP assays (pIC50) A2A (converted). It counts as cell-based. For orientation: Changes in cAMP serve as a functional read-out for many G protein-coupled receptors.

Data set [6] deals with A1/A2A ARs. Put plainly: cAMP functional assay, summarised over both receptors. The following applies: range over A1AR and A2AAR cAMP assays.
The target in data set [7] is T1, A1AR. Put plainly: biochemical.
On the set-up of data set [8]: method as in PMID 20973483. The conditions noted are these: further studies; cited from earlier work.
The next data set concerns animal models of PD. More on the design: method as in PMID 20973483. The following applies: oral administration; cited from earlier work.
The subject of a further data set is rodents. The conditions noted are these: forced swim test and tail suspension test in rodents; cited from earlier work.
Data set [9] deals with A1/A2A ARs. Description: Radioligand binding assays, summarised over both receptors. The conditions noted are these: range over A1AR and A2AAR radioligand binding assays. More on the design: species or system human.
Another data set has as its target A1 receptor. The following applies: cited from earlier work.
For another data set, the target named is A2A receptor. The following applies: cited from earlier work.

A value given as a limit tells only on which side of the number the result lay.

T2 sequence (P29274 whole entry): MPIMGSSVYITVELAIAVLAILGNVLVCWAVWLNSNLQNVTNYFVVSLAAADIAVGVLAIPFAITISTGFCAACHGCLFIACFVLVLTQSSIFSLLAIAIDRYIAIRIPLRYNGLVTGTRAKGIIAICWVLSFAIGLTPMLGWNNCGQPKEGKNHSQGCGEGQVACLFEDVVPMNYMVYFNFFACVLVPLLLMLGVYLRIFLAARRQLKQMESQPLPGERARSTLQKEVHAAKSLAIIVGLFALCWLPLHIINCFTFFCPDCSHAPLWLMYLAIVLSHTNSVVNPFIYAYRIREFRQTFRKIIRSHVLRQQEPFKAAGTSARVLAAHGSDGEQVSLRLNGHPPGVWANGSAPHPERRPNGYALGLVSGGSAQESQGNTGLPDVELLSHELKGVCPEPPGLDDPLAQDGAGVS

In the case of `Nc1nc(C#C[C@@H](O)c2ccccc2)nc2c1ncn2[C@@H]1O[C@H](CO)[C@@H](O)[C@H]1O` [CHEMBL262363], the Ki at A1AR [1] is 0.67 nM; on A2AAR [2] it was 1.8 nM.
Take `CCn1c(/N=C/c2ccc(F)cc2)c(C#N)sc1=S` [CHEMBL2419148]: at A2AAR [2], the Ki was 11 nM.
`CC(=O)c1cccc(NC(=O)Nc2cc3c(cc2Oc2ccccc2)n(C)c(=O)n3C)c1` [Compound C15]: the values for the IC50 on A1AR [3] and on A2AAR [5] were 4470 nM and 7940 nM, respectively. The Ki is above 100000 nM on A2AAR [4] and 2880 nM at A1AR [7]. In the data set with A1/A2A ARs [6], the “pIC50 towards A1/A2A ARs” value is on record as 5.10–5.35.
In the case of `Nc1nc(-c2ccccc2)c2c(n1)-c1cc(CN3CCCC3)ccc1C2=O` [2-amino-4-phenyl-8-(pyrrolidin-1-ylmethyl)-5H-indeno[1,2-d]pyrimidin-5-one], the genotoxicity result in data set [8] is on record as “genotoxic”. For the same molecule, the “activity in animal models of PD” value with animal models of PD was “excellent activity”.
With `CCCCNC(=O)CCn1nc(-c2ccccc2)c2ccccc2c1=O` [Compound C1], at A1AR [3], the IC50 was above 100000 nM.
Same read-out and setting: for `O=C(COc1ccccc1)Nc1c(C(=O)Nc2cccc(F)c2)oc2ccccc12` [Compound C2] the value was above 100000 nM.
`CC(=O)Nc1cc(-n2cccn2)nc(-c2ccco2)n1` [CHEMBL401321]: the Ki on A1AR [1] is 9.45 nM; on A2AAR [2], 0.6 nM.
Take `COc1ccc(NC(=O)Nc2nc3ccc(Cl)cc3c3nc(-c4ccco4)nn23)cc1` [CHEMBL144979]: the results for the Ki on A1AR [1] and on A2AAR [2] were 7.6 nM and 9.4 nM, respectively.
Regarding `Cc1ccc(-c2nc(N)nc3c2nnn3Cc2ccccc2F)o1` [CHEMBL461857], the Ki at A1AR [1] is 19 nM; on A2AAR [2], 2.1 nM.
Turning to `CCn1cnc2c(-c3ccccc3)cn(CC(=O)Nc3cccc(F)c3)c2c1=O` [Compound C17], the IC50 on A1AR [3] is 631 nM; at A2AAR [5], 63100 nM. In addition, the Ki at A2AAR [4] is above 100000 nM; at A1AR [7], 525 nM.
On to `CCn1c(=O)c2c(nc(/C=C/c3ccc(OC)c(OC)c3)n2C)n(CC)c1=O` [KW-6002], for which the antidepressant activity entry in the data set with rodents is on record as “antidepressant activity”.
Consider `O=C(NC1CC1)[C@H]1S[C@@H](n2cnc3c(NCc4cccc(I)c4)ncnc32)[C@H](O)[C@@H]1O` [CHEMBL596014], for which the Ki on A2AAR [2] is 15.2 nM.
Take `N#Cc1c(N)nc(SCc2ncc[nH]2)c(C#N)c1-c1ccc(O)cc1` [CHEMBL122622]: the values for the Ki at A1AR [1] and on A2AAR [2] were 2.6 nM and 28 nM, respectively.
Consider `Cc1ccccc1-c1nc(N)n(C(=O)Cc2ccccc2)n1` [Compound C7], for which the IC50 was 1910 nM at A1AR [3] and above 100000 nM on A2AAR [5]. Also, the Ki was 5750 nM on A2AAR [4] and 1050 nM on A1AR [7].
Consider `CN(C)CCOc1ccc(-c2nc3c([nH]2)c(=O)n(C)c(=O)n3C)cc1` [CHEMBL3121720], for which the Ki at A1AR [1] is 1.82 nM; at A2AAR [2], 0.4 nM.
`O=C(Cc1csc(NC(=O)c2ccc3c(c2)OCO3)n1)NCCCc1ccccc1` [Compound C13]: on A1AR [3], the IC50 is above 100000 nM.
Consider `Nc1nc(-c2ccccc2Cl)nn1C(=O)c1cccc(Cl)c1` [Compound C9], for which the IC50 on A1AR [3] was 191 nM; at A2AAR [5], 490 nM. The Ki at A2AAR [4] is 69.2 nM; at A1AR [7], 32.4 nM. Further, the “pIC50 towards A1/A2A ARs” value in the data set on A1/A2A ARs [6] is on record as 6.31–6.78. Further, the “pKi for A1/A2A ARs” value at A1/A2A ARs [9] is listed as 7.16–7.49.
Turning to `O=C(CCCn1c2ccccc2c2cn[nH]c(=O)c21)NCc1cccs1` [Compound C3], the IC50 on A1AR [3] is above 100000 nM.
Turning to `Cn1c(=O)c2c(-c3cccc(Cl)c3)c(Nc3ccccc3)oc2n(C)c1=O` [Compound C11], the IC50 on A1AR [3] is above 100000 nM.
With `CC(=O)Nc1cc(-c2cccc(N3CCCC3)n2)nc(-n2nc(C)cc2C)n1` [CHEMBL485765], the Ki was 7.2 nM at A1AR [1] and 0.26 nM at A2AAR [2].
With `CCCn1ccc2c(OCC(=O)Nc3ccc(OCC)cc3)cccc2c1=O` [Compound C16], at A1AR [3], the IC50 was above 100000 nM.
Same read-out and setting: in the case of `O=C(Cn1c(=O)n(-c2ccccc2)c2ncccc21)NCc1cccc(F)c1` [Compound C18] it was above 100000 nM.
Turning to `Cc1ccc(-c2c(C(=O)NCc3ccncc3)nc3ccccn23)cc1` [Compound C19], the IC50 at A1AR [3] is 52500 nM; at A2AAR [5], above 100000 nM. Also, the Ki is 11700 nM on A2AAR [4] and 10700 nM at A1AR [7].
The like results for `O=C(c1ccco1)n1nc(-c2ccco2)nc1NCc1ccccc1` [Compound C4] were, in that order, 3090 nM, above 100000 nM, 19500 nM and 2090 nM.
For the molecule `CCCCCc1nc(N)c2nc(-n3nccn3)n(C)c2n1` [CHEMBL196258], the Ki on A1AR [1] is 26.2 nM.
As to `Nc1nc(-c2ccccc2)c2c(n1)-c1cc(N3CCOCC3)ccc1C2=O` [CHEMBL1095822], the values for the Ki at A1AR [1] and at A2AAR [2] were 32.4 nM and 2.9 nM, respectively.
As to `Cc1cccc(NC(=O)Cc2csc(NC(=O)c3ccc4c(c3)OCO4)n2)c1` [Compound C14], the IC50 on A1AR [3] was above 100000 nM.
As for `CCCNc1cc(C)nc2c(C)c(-c3ccc(C)cc3)nn12` [Compound C10], the IC50 on A1AR [3] is 347 nM; on A2AAR [5], 10000 nM. The values for the Ki on A2AAR [4] and at A1AR [7] were 8320 nM and 170 nM, respectively.
As to `OC[C@H]1O[C@@H](n2cnc3c(NC4CCCC4)nc(Cl)nc32)[C@H](O)[C@@H]1O` [CHEMBL284969], the Ki on A2AAR [2] is 17 nM.
Turning to `Cc1ccc(-c2cc(-c3cccc(C(=O)N4CCCCC4)c3)nc(N)n2)o1` [4-(5-methylfuran-2-yl)-6-[3-(piperidine-1-carbonyl)phenyl]pyrimidin-2-amine], the Ki on A1 receptor was 9.54 nM; on A2A receptor, 6.34 nM.

These data come from publication PMC7978378, “Discovery of novel dual adenosine A1/A2A receptor antagonists using deep learning, pharmacophore modeling and molecular docking” (PLoS Computational Biology, 2021).
